Publication PMC11123773, “Identification of New Substrates and Inhibitors of Human CYP2A7” (Molecules, 2024)
Where a chain is given by its changes, count along the chain named.

Legend:
Assay in all cases: Diclofenac biotransformation with enzyme bags, LC-MS analysis of hydroxydiclofenac
Type in all cases: biochemical
CYP2A6*1 = biological target: T1, CYP2A6*1 (Homo sapiens, UniProt P11509); parameters: expressed in transfected cells; host or cells: Schizosaccharomyces pombe strain RAJ122 (pREP1-CYP2A6*1 in CAD62), permeabilized cells (enzyme bags); conditions: by CYP2A6*1; diclofenac 100 µM
T1 sequence (P11509 1-494): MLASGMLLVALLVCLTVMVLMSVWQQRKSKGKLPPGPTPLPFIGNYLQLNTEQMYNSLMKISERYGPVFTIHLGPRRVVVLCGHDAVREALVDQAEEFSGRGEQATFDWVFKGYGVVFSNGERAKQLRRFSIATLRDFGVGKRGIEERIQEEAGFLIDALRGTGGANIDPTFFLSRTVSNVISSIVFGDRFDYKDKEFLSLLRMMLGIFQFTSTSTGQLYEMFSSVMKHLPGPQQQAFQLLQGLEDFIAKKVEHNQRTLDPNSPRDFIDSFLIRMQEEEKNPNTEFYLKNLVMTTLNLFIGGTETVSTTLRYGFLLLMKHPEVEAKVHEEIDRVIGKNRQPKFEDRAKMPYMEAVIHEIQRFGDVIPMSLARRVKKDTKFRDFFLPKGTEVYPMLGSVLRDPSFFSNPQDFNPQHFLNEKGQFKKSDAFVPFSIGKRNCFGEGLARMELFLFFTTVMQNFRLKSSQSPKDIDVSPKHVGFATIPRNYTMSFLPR
Procedure: (§1) This was performed as described previously with slight modifications. Briefly, fission yeast cells were cultured on EMM plates with 5 µM thiamine for 3 days at 30 °C. A single yeast colony was then transferred to a 10 mL liquid culture of EMM without thiamine and cultured at 30 °C and 230 rpm for 36 h. As the recombinant expression of the human enzymes is controlled by the strong endogenous nmt1 promoter, all subsequent cultures were cultured in the absence of thiamine to keep the promoter in an active state. For each activity assay, 5 × 10^7 cells (stationary growth phase) were transferred to 1.5 mL Eppendorf tubes (Axygen; Silicon Valley, USA), pelleted, and incubated in 1 mL of 0.3% Triton-X100 in Tris-KCl buffer (200 mM KCl, 100 mM Tris-HCl pH 7.8) at room temperature for 60 min at 150 rpm for permeabilization. After three washes with 1 mL NH4HCO3 buffer (50 mM, pH 7.8), cells were resuspended in phosphate buffer (pH 7.4) and then the substrate and the NADPH regeneration system were added to a total volume of 50 µL. The samples were incubated at 37 °C and 1000 rpm for 3 h. For LC-MS analysis, the reaction mixture was extracted with an equal amount of ethyl acetate by centrifugation, and the supernatants were stored at −20 °C until use.
(§2) Analytical procedures were performed on an Agilent HPLC/microTOF-Q II instrument equipped with a Kromasil 100-5-C18 (dimensions 4.6 × 250 mm). […]

CYP2A7-WT = biological target: T2, CYP2A7-WT (Homo sapiens, UniProt P20853, D169E/H274R/R311C/V479G); parameters: expressed in transfected cells; host or cells: Schizosaccharomyces pombe strain AA01 (pREP1-CYP2A7-WT in CAD62), permeabilized cells (enzyme bags); conditions: by CYP2A7-WT; diclofenac 100 µM
T2 sequence (P20853 1-494 D169E/H274R/R311C/V479G): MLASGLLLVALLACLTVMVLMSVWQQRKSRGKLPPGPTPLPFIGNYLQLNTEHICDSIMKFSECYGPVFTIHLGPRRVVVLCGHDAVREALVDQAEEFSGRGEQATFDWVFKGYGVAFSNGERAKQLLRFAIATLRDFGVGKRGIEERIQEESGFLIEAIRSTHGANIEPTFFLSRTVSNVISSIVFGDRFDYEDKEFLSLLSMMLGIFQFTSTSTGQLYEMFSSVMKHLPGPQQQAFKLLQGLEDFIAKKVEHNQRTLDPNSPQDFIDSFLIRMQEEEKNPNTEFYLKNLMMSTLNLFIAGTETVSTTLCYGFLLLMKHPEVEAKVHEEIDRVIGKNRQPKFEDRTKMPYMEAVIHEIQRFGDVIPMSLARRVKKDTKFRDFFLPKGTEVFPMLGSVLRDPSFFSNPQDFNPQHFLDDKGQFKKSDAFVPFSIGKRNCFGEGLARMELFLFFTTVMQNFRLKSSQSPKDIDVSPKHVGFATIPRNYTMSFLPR
Procedure: as §1, §2

CYP2A7*1 = biological target: T3, CYP2A7*1 (Homo sapiens, UniProt P20853); parameters: expressed in transfected cells; host or cells: Schizosaccharomyces pombe strain RAJ127 (pREP1-CYP2A7*1 in CAD62), permeabilized cells (enzyme bags); conditions: by CYP2A7*1; diclofenac 100 µM
T3 sequence (P20853 1-494): T2 sequence (P20853 1-494 D169E/H274R/R311C/V479G) with E169D, R274H, C311R, G479V
Procedure: as §1, §2

`O=C(O)Cc1ccccc1Nc1c(Cl)cccc1Cl` [diclofenac] was tested, and the “Metabolization of diclofenac (hydroxydiclofenac formation)” value (“Metabolization of diclofenac” below) (CYP2A6*1) was “produced a diclofenac metabolite that had the mass of hydroxydiclofenac”, the “Metabolization of diclofenac” value (CYP2A7-WT) was “produced a diclofenac metabolite that had the mass of hydroxydiclofenac” and the “Metabolization of diclofenac” value (CYP2A7*1) was “produced a diclofenac metabolite that had the mass of hydroxydiclofenac”.
